Data as given in patent US20240398812A1 (Caraway Therapeutics, Inc., priority 2021, published 2024).

Key:
Format in all cases: cell-based
[1] = biological target: human TRPML1 (Homo sapiens, UniProt Q9GZU1); assay: Fluorescent TRPML1 assay (Fluo4-AM calcium fluorescence, HEK-293 Trex cells)
Procedure, shortened: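 Agonist EC50 from non-linear regression of percent activity versus on-plate controls, calcium signal read at 480/540 nm. Compounds spanned 6 nM–20 μM final in triplicate. Cells: doxycycline-induced HEK-293 Trex with cell-surface human TRPML1 mutant, Fluo4-AM loaded, in Ringer's containing 10 mM calcium.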

[2] = biological target: T1, TRPML3 (Homo sapiens, UniProt Q8TDD5); assay: Fluorescent TRPML3 assay (as for TRPML1)
T1 construct: expressed in transfected cells
T1 sequence (Q8TDD5 1-553): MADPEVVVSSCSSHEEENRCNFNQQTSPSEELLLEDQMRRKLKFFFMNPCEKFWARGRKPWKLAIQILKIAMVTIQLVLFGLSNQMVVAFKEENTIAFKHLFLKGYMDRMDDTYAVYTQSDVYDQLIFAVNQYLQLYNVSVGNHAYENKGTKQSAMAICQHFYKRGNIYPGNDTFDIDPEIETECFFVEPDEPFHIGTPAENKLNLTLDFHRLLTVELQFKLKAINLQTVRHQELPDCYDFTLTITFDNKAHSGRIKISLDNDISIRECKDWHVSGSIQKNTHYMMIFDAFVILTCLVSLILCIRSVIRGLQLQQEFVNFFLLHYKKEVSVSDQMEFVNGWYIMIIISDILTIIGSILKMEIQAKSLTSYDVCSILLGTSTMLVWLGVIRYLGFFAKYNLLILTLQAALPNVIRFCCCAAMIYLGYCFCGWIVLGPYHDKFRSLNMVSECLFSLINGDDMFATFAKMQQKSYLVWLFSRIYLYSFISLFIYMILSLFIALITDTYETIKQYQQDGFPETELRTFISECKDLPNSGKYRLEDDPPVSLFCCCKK
Procedure, shortened: (§1)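 EC50 came from non-linear regression of percent activity, set against on-plate positive and negative controls, using Fluo4 fluorescence (ex 480, em 540 nm). Compounds ran in triplicate from 6 nM to 20 µM final in half-log steps. Doxycycline-induced (0.5 ug/mL) HEK-293 Trex cells expressing surface-directed mutant channel were in 10 mM calcium Ringer's.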

[3] = biological target: T2, TRPML2 (Homo sapiens, UniProt Q8IZK6); assay: Fluorescent TRPML2 assay (as for TRPML1)
T2 construct: expressed in transfected cells
T2 sequence (Q8IZK6 1-566): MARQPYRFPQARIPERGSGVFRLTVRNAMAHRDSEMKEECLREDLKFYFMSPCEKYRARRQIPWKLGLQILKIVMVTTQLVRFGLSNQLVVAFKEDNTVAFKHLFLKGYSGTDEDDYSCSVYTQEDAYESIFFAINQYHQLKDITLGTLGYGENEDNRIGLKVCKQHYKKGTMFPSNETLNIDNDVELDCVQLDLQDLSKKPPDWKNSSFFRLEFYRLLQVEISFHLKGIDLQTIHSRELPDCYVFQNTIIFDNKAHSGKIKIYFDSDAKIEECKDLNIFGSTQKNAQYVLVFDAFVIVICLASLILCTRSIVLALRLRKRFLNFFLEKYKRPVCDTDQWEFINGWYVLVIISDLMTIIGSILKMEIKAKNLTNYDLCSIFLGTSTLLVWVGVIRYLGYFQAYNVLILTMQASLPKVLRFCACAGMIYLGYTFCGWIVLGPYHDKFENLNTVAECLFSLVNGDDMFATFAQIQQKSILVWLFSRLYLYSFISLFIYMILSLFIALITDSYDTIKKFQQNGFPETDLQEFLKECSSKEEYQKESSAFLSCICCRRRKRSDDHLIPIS
Procedure, shortened: as §1

Chain of human TRPML1 (Q9GZU1 whole entry L15A/L16A/L577A/L578A, form open): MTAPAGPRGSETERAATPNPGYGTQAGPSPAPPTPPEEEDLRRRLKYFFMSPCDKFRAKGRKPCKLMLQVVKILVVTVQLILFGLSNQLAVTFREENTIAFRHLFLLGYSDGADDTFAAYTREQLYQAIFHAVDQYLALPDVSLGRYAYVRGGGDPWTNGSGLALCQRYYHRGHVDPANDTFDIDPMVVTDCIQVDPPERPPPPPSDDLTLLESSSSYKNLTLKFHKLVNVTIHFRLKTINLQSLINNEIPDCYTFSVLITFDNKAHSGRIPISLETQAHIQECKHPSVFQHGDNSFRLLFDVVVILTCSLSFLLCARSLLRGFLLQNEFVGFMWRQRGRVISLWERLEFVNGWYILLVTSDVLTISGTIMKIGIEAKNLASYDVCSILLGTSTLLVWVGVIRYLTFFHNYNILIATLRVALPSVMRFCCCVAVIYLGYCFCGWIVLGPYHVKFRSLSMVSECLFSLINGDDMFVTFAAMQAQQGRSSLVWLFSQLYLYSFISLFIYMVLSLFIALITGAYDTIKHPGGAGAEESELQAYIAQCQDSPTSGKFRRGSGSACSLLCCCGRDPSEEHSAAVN

EC50 ([1]; Table 3, compounds 201-283) [nM]	EC50 ([2]; Table 3, compounds 201-283) [nM]	EC50 ([3]; Table 3, compounds 201-283) [nM]	EC50 ([1]; Table 3, compounds 101-177) [nM]	EC50 ([2]; Table 3, compounds 101-177) [nM]	EC50 ([3]; Table 3, compounds 101-177) [nM]	Compound
100 to 500	100 to 500	500 to 2000	–	–	–	C[C@@H]1CN(c2ncnc3c2c(C2CCC2)cn3-c2cccc(F)c2)[C@@H](C)CN1C(=O)CC(C)(C)C(F)(F)F [Compound 251, 1-((2R,5S)-4-(5-cyclobutyl-7-(3-fluorophenyl)-7H-pyrrolo[2,3-d]pyrimidin-4-yl)-2,5-dimethylpiperazin-1-yl)-4,4,4-trifluoro-3,3-dimethylbutan-1-one]
–	–	–	< 100	100 to 500	100 to 500	C[C@@H]1CN(c2ncnc3c2c(C2CC2)cn3-c2cc(C#N)ccn2)CCN1C(=O)C(C)(C)C [Compound 122, (R)-2-(5-cyclopropyl-4-(3-methyl-4-pivaloylpiperazin-1-yl)-7H-pyrrolo[2,3-d]pyrimidin-7-yl)isonicotinonitrile]
< 100	500 to 2000	100 to 500	–	–	–	C[C@@H]1CN(c2ncnc3c2c(-c2ccccc2F)cn3-c2cc(C#N)ccn2)[C@@H](C)CN1C(=O)C1(F)CC1 [Compound 235, 2-(4-((2S,5R)-4-(1-fluorocyclopropane-1-carbonyl)-2,5-dimethylpiperazin-1-yl)-5-(2-fluorophenyl)-7H-pyrrolo[2,3-d]pyrimidin-7-yl)isonicotinonitrile]
< 100	< 100	< 100	–	–	–	C[C@H]1CN(C(=O)[C@@H](F)C(C)(C)C)CCN1c1ncnc2c1c(C1CC1)cn2-c1cc(C#N)ccn1 (single isomer, unassigned) [Compound 203]
500 to 2000	500 to 2000	> 2000	–	–	–	C[C@@H]1CN(c2ncnc3c2c(C2CCC2)cn3-c2cc(F)cc(F)c2)[C@@H](C)CN1C(=O)C(C)(C)C [Compound 255, 1-((2R,5S)-4-(5-cyclobutyl-7-(3,5-difluorophenyl)-7H-pyrrolo[2,3-d]pyrimidin-4-yl)-2,5-dimethylpiperazin-1-yl)-2,2-dimethylpropan-1-one]
–	–	–	100 to 500	100 to 500	100 to 500	Cc1cc(C#N)cc(-n2cc(-c3ccccc3F)c3c(N4CCN(C(=O)C(C)C)C[C@@H]4C)ncnc32)n1 [Compound 143, (S)-2-(5-(2-fluorophenyl)-4-(4-isobutyryl-2-methylpiperazin-1-yl)-7H-pyrrolo[2,3-d]pyrimidin-7-yl)-6-methylisonicotinonitrile]
–	–	–	< 100	< 100	100 to 500	C[C@H]1CN(C(=O)CC(C)(C)C)CCN1c1ncnc2c1c(-c1ccccc1F)cn2-c1cc(C#N)ccn1 [Compound 133, (S)-2-(4-(4-(3,3-dimethylbutanoyl)-2-methylpiperazin-1-yl)-5-(2-fluorophenyl)-7H-pyrrolo[2,3-d]pyrimidin-7-yl)isonicotinonitrile]
< 100	< 100	< 100	–	–	–	C[C@H]1CN(C(=O)[C@H](F)C(C)(C)C)CCN1c1ncnc2c1c(C1CC1)cn2-c1cc(C#N)ccn1 (single isomer, unassigned) [Compound 202]
< 100	< 100	< 100	–	–	–	[2H]C([2H])([2H])C(C(=O)N1C[C@H](C)N(c2ncnc3c2c(-c2ccccc2F)cn3-c2cc(C#N)ccn2)C[C@H]1C)(C([2H])([2H])[2H])C([2H])([2H])[2H] [Compound 231, 2-(4-((2S,5R)-4-(2,2-bis(methyl-d3)propanoyl-3,3,3-d3)-2,5-dimethylpiperazin-1-yl)-5-(2-fluorophenyl)-7H-pyrrolo[2,3-d]pyrimidin-7-yl)isonicotinonitrile]

The next lines start with the molecule.

Compound	EC50 ([1]; Table 3, compounds 201-283) [nM]	EC50 ([2]; Table 3, compounds 201-283) [nM]	EC50 ([3]; Table 3, compounds 201-283) [nM]	EC50 ([1]; Table 3, compounds 101-177) [nM]	EC50 ([2]; Table 3, compounds 101-177) [nM]	EC50 ([3]; Table 3, compounds 101-177) [nM]
COC(C)(C)C(=O)N1C[C@H](C)N(c2ncnc3c2c(N2CCC2)cn3-c2cccc(F)c2)C[C@H]1C [Compound 277, 1-((2R,5S)-4-(5-(azetidin-1-yl)-7-(3-fluorophenyl)-7H-pyrrolo[2,3-d]pyrimidin-4-yl)-2,5-dimethylpiperazin-1-yl)-2-methoxy-2-methylpropan-1-one]	< 100	100 to 500	500 to 2000	–	–	–
COC(C)(C)C(=O)N1CCN(c2ncnc3c2c(N2CCC2)cn3-c2cc(C#N)ccn2)C[C@H]1C [Compound 269, (R)-2-(5-(azetidin-1-yl)-4-(4-(2-methoxy-2-methylpropanoyl)-3-methylpiperazin-1-yl)-7H-pyrrolo[2,3-d]pyrimidin-7-yl)isonicotinonitrile]	< 100	< 100	< 100	–	–	–
C[C@@H]1CN(c2ncnc3c2c(C2CCC2)cn3-c2cccc(Cl)c2)[C@@H](C)CN1C(=O)CC(C)(C)C(F)(F)F [Compound 258, 1-((2R,5S)-4-(7-(3-chlorophenyl)-5-cyclobutyl-7H-pyrrolo[2,3-d]pyrimidin-4-yl)-2,5-dimethylpiperazin-1-yl)-4,4,4-trifluoro-3,3-dimethylbutan-1-one]	100 to 500	100 to 500	500 to 2000	–	–	–
C[C@@H]1CN(c2ncnc3c2c(N2CCC2)cn3-c2cc(C#N)ccn2)CCN1C(=O)C1(F)CC1 [Compound 270, (R)-2-(5-(azetidin-1-yl)-4-(4-(1-fluorocyclopropane-1-carbonyl)-3-methylpiperazin-1-yl)-7H-pyrrolo[2,3-d]pyrimidin-7-yl)isonicotinonitrile]	< 100	< 100	100 to 500	–	–	–
C[C@@H]1CN(c2ncnc3c2c(N2CCCC2)cn3-c2cccc(Cl)c2)[C@@H](C)CN1C(=O)C1(F)CC1 [Compound 280, ((2R,5S)-4-(7-(3-chlorophenyl)-5-(pyrrolidin-1-yl)-7H-pyrrolo[2,3-d]pyrimidin-4-yl)-2,5-dimethylpiperazin-1-yl)(1-fluorocyclopropyl)methanone]	100 to 500	500 to 2000	500 to 2000	–	–	–
C[C@H]1CN(C(=O)C(C)(C)C)CCN1c1ncnc2c1c(C1CC1)cn2-c1cccc(F)c1 [Compound 215, (S)-1-(4-(5-cyclopropyl-7-(3-fluorophenyl)-7H-pyrrolo[2,3-d]pyrimidin-4-yl)-3-methylpiperazin-1-yl)-2,2-dimethylpropan-1-one]	100 to 500	500 to 2000	100 to 500	–	–	–
COC(C)(C)C(=O)N1CCN(c2ncnc3c2c(C2CC2)cn3-c2cc(C#N)ccn2)C[C@H]1C [Compound 265, (R)-2-(5-cyclopropyl-4-(4-(2-methoxy-2-methylpropanoyl)-3-methylpiperazin-1-yl)-7H-pyrrolo [2,3-d]pyrimidin-7-yl)isonicotinonitrile]	< 100	< 100	100 to 500	–	–	–
C[C@@H]1CN(c2ncnc3c2c(N2CCC2)cn3-c2cc(C#N)ccn2)CCN1C(=O)C(C)(C)C [Compound 271, (R)-2-(5-(azetidin-1-yl)-4-(3-methyl-4-pivaloylpiperazin-1-yl)-7H-pyrrolo[2,3-d]pyrimidin-7-yl)isonicotinonitrile]	< 100	< 100	< 100	–	–	–
C[C@@H]1CN(c2ncnc3c2c(-c2ccccc2F)cn3-c2cc(C#N)ccn2)[C@@H](C)CN1C(=O)C(C)(C)C [Compound 230, 2-(4-((2S,5R)-2,5-dimethyl-4-pivaloylpiperazin-1-yl)-5-(2-fluorophenyl)-7H-pyrrolo[2,3-d]pyrimidin-7-yl)isonicotinonitrile]	< 100	< 100	< 100	–	–	–
COC(C)(C)C(=O)N1C[C@H](C)N(c2ncnc3c2c(C(F)(F)F)cn3-c2cccc(F)c2)C[C@H]1C [Compound 223, 1-((2R,5S)-4-(7-(3-fluorophenyl)-5-(trifluoromethyl)-7H-pyrrolo[2,3-d]pyrimidin-4-yl)-2,5-dimethylpiperazin-1-yl)-2-methoxy-2-methylpropan-1-one]	< 100	100 to 500	> 2000	–	–	–
C[C@H]1CN(C(=O)C(C)(C)C)CCN1c1ncnc2c1c(-c1ccccc1)cn2-c1cc(C#N)ccn1 [Compound 120, (S)-2-(4-(2-methyl-4-pivaloylpiperazin-1-yl)-5-phenyl-7H-pyrrolo[2,3-d]pyrimidin-7-yl)isonicotinonitrile]	–	–	–	< 100	< 100	100 to 500
